Values quoted from earlier work as cited in article PMC11910062 (Drug Design, Development and Therapy, 2025).

Columns and labels:
[1] = ref submission materials for new drug application
[2] = CLEAR Outcomes study

Cmax ([1]; 180 mg dose of Nexletol): 19950 ng/mL
SMILES: CC(C)(CCCCCC(O)CCCCCC(C)(C)C(=O)O)C(=O)O [Nexletol, bempedoic acid]
LDL-C reduction ([1]; 180 mg of Nexletol): 26%
4 major adverse cardiovascular events (4-MACE) reduction compared with placebo group [2]: −13%
